Assay results reported in ChEMBL document CHEMBL3091423, “Synthesis, antioxidant capacity, and structure-activity relationships of tri-O-methylnorbergenin analogues on tyrosinase inhibition” (Bioorg Med Chem Lett, 2013).

Key:
[1] = target: T1, Tyrosinase (Agaricus bisporus, UniProt O42713)
T1 sequence (O42713 whole entry): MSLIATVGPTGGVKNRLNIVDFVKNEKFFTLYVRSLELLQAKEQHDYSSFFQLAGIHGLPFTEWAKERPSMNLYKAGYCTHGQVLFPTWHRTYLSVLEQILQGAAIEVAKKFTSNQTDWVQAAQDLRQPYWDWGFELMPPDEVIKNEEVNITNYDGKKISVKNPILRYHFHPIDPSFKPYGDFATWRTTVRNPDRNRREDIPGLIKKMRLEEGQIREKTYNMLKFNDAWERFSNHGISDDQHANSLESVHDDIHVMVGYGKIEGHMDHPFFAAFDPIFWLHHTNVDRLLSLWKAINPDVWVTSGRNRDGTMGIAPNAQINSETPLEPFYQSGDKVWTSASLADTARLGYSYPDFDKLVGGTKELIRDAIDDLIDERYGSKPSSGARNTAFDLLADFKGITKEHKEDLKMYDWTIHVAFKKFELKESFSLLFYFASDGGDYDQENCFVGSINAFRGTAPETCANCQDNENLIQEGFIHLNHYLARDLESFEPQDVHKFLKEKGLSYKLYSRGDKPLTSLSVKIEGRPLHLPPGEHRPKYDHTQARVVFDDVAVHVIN
Description: (§1) Inhibition of mushroom tyrosinase using L-tyrosine as substrate preincubated for 10 mins followed by enzyme addition measured after 20 mins by microplate reader analysis

[2] = target: T1, Tyrosinase; experiment: Inhibition of mushroom tyrosinase using L-tyrosine as substrate by Dixon plot analysis
[3] = target: T1, Tyrosinase; experiment: Mixed inhibition of mushroom tyrosinase using L-tyrosine as substrate by Dixon/Cornish-Bowden plot analysis
[4] = target: T2, Tyrosinase (Agaricus bisporus) (UniProt O42713)
T2 sequence (whole entry): T1 sequence (O42713 whole entry)
Description: as §1

[5] = target: T1, Tyrosinase; experiment: Uncompetitive inhibition of mushroom tyrosinase using L-tyrosine as substrate by Dixon/Cornish-Bowden plot analysis

Compound | IC50 [1] [µM] | other results
COc1c(O)cc2c(c1O)[C@@H]1O[C@H](CO)[C@@H](O)[C@H](O)[C@H]1OC2=O [BERGENIN] | > 100 | 
O=C(O)c1ccc(O)c(O)c1 [PROTOCATECHUIC ACID] | > 100 | 
O=C(O)c1ccccc1 [BENZOIC ACID] | > 100 | 
COc1cc(C(=O)O)cc(OC)c1O [SYRINGIC ACID] | > 100 | 
COc1cc2c(c(OC)c1OC)[C@H]1O[C@@H](CO)[C@H](O)[C@@H](O)[C@@H]1OC2=O | > 100 | 
COc1ccc(C(=O)O)cc1O [ISOVANILLIC ACID] | > 100 | 
COc1ccc(C(=O)O)cc1 [p-ANISIC ACID] | > 100 | 
COc1ccc(C(=O)O)cc1OC [VERATRIC ACID] | > 100 | 
O=C(O)c1ccc(O)cc1 [PARABEN] | > 100 | 
COc1cc(OC)cc(C(=O)O)c1 [3,5-DIMETHOXYBENZOIC ACID] | > 100 | 

More lines, main results first:

IC50 [1] [µM] | Compound | other results
> 100 | COc1cc(OC)cc(C(=O)OC[C@H]2O[C@H]3c4c(cc(OC)c(OC)c4OC)C(=O)O[C@@H]3[C@@H](O)[C@@H]2O)c1 | 
> 100 | COc1ccc(C(=O)OC[C@H]2O[C@H]3c4c(cc(OC)c(OC)c4OC)C(=O)O[C@@H]3[C@@H](O)[C@@H]2O)cc1 | 
9.1 | COc1cc2c(c(OC)c1OC)[C@@H]1O[C@H](COC(=O)c3ccc(O)c(O)c3)[C@@H](O)[C@H](O)[C@H]1OC2=O | Ki [2]: 4.5 µM; Ki [3]: 7.3 µM; inhibition [4]: Dose-dependent effect
> 100 | COc1cc(C(=O)OC[C@H]2O[C@H]3c4c(cc(OC)c(OC)c4OC)C(=O)O[C@@H]3[C@@H](O)[C@@H]2O)cc(OC)c1O | 
> 100 | COc1cc2c(c(OC)c1OC)[C@@H]1O[C@H](COC(=O)c3ccccc3)[C@@H](O)[C@H](O)[C@H]1OC2=O | 
17.5 | COc1c(O)cc2c(c1O)[C@@H]1O[C@H](COC(=O)c3ccc(O)c(O)c3)[C@@H](O)[C@H](O)[C@H]1OC2=O | 
38.8 | COc1ccc(C(=O)OC[C@H]2O[C@H]3c4c(cc(OC)c(OC)c4OC)C(=O)O[C@@H]3[C@@H](O)[C@@H]2O)cc1O | Ki [5]: 107 µM; inhibition [4]: Dose-dependent effect
> 100 | COc1ccc(C(=O)OC[C@H]2O[C@H]3c4c(cc(OC)c(OC)c4OC)C(=O)O[C@@H]3[C@@H](O)[C@@H]2O)cc1OC | 
31.5 | COc1cc2c(c(OC)c1OC)[C@@H]1O[C@H](COC(=O)c3ccc(O)cc3)[C@@H](O)[C@H](O)[C@H]1OC2=O | Ki [2]: 74.8 µM; Ki [3]: 121 µM; inhibition [4]: Dose-dependent effect
> 100 | COc1cc(C(=O)OC[C@H]2O[C@H]3c4c(cc(OC)c(OC)c4OC)C(=O)O[C@@H]3[C@@H](O)[C@@H]2O)ccc1O | 
